From patent US12466849B2, “Anti-viral and anti-tumoral compounds” (YEDA RESEARCH AND DEVELOPMENT CO. LTD, priority 2020, dated 2025) come the findings set out here.

Structures are written as SMILES. Like-named read-outs stand apart in the source and are kept apart here. Residues, ends and D or L forms follow the SMILES beside them. *: point of attachment. Cbz = O=C(OCc1ccccc1)*; CH2F = FC*

Data set [1] relates to Epstein-Barr virus (EBV), Akata strain. Set-up: SI50 / SI90: unit not given beside the values.
Data set [2] relates to BK virus (BKV), Gardner strain. Set-up: SI50 / SI90: unit not given beside the values.
The nature of data set [3]: in vitro. To be noted: human.
Data set [4] deals with Epstein-Barr virus (EBV), Akata strain. Briefly: microbe, parasite or virus in culture. To be noted: human gammaherpesvirus 4, Akata, 72 h.
Data set [5] has as its system JC virus (JCV). The data set is described as follows: microbe, parasite or virus in culture. Particulars: JC polyomavirus, COS-7.
A short description of data set [6]: in vitro. Particulars: African green monkey.
In data set [7] the test system is BK virus (BKV), Gardner strain. The data set is described as follows: microbe, parasite or virus in culture. Particulars: Betapolyomavirus hominis, HFF.
In data set [8] the test system is SARS-CoV-2 (USA-WA1/2020). The class given is cell-based. Particulars: compound replenished daily, SI = CC50/EC50.
Data set [9] concerns SARS-CoV-2 (USA-WA1/2020). To be noted: for SI50 (SI): SARS-CoV-2, SI = CC50/EC50.
A further data set concerns MERS-CoV (EMC). The format is cell-based. To be noted: SI = CC50/EC50.
For data set [10], the system named is Tacaribe virus (TCRV, TRVL-11573). Set-up: SI50 (SI): unit not given beside the values.
For data set [11], the system named is dengue virus-2 (DENV-2, New Guinea C). To be noted: SI = CC50/EC50.
Data set [12] relates to enterovirus-68 (EV-68, US/DY/14-18953).
For data set [13], the system named is respiratory syncytial virus (RSV, A2).
For data set [14], the system named is influenza/California/07/2009 (H1N1)pdm09.
Data set [15] concerns Influenza B/Florida/4/2006 (Yamagata).
Data set [16] has as its system JC virus (JCV).
The subject of data set [17] is JC virus (JCV). Briefly: Secondary JCV assay (qPCR), COS7 cells. To be noted: secondary JCV assay, COS7 cells; for EC50 / EC90: 7 days, qPCR, test drug concentration 0.001-100 μM; for Activity: class by SI50. (Quantitative PCR measures a nucleic acid by following its amplification.)
The subject of another data set is HCMV AD169. The data set is described as follows: HCMV plaque reduction assay, MRC-5 cells, strain AD169. The format is cell-based, Human cytomegalovirus. To be noted: hCMV AD169, MRC5 cells, plaque assay, 6-days duration. (In general: Plaque reduction counts the foci of infection that form in a cell layer.)
In the next data set the test system is HFF cells. The data set is described as follows: Cell proliferation assay, human foreskin fibroblast (HFF) cells. Particulars: 72 h, cell number. The format is cell-based.
In data set [18] the test system is Human cytomegalovirus (HCMV), strain AD169. To be noted: for EC50 / EC90: drug concentration 0.048-150 μM.
For data set [19], the target named is T1, SARS-Cov2 RdRp (nsp12-nsp7-nsp8) (Severe acute respiratory syndrome coronavirus 2, UniProt P0DTD1). The class given is biochemical. To be noted: after addition of GTP and CTP (third and fourth nucleotides).
The target in data set [20] is mitochondrial DNA polymerase (POLG1) (Homo sapiens, UniProt P54098). The data set is described as follows: Inhibition of mitochondrial DNA polymerase (POLG1).
In data set [21] the target is T1, SARS-Cov2 RdRp (nsp12-nsp7-nsp8). The format is biochemical. To be noted: primer extension; analog at 100 uM, printed 100 mM.
The target in data set [22] is T2, Inosine-5′-Monophosphate Dehydrogenase 2 (IMPDH2) (Homo sapiens, UniProt P12268).
T2 construct: purchased BioVision (California, USA)
Briefly: IMPDH inhibitor screening assay (BioVision kit). The class given is biochemical. Particulars: IMPDH activity, colorimetric OD 450 nm.

Chain of mitochondrial DNA polymerase (POLG1) (P54098 whole entry): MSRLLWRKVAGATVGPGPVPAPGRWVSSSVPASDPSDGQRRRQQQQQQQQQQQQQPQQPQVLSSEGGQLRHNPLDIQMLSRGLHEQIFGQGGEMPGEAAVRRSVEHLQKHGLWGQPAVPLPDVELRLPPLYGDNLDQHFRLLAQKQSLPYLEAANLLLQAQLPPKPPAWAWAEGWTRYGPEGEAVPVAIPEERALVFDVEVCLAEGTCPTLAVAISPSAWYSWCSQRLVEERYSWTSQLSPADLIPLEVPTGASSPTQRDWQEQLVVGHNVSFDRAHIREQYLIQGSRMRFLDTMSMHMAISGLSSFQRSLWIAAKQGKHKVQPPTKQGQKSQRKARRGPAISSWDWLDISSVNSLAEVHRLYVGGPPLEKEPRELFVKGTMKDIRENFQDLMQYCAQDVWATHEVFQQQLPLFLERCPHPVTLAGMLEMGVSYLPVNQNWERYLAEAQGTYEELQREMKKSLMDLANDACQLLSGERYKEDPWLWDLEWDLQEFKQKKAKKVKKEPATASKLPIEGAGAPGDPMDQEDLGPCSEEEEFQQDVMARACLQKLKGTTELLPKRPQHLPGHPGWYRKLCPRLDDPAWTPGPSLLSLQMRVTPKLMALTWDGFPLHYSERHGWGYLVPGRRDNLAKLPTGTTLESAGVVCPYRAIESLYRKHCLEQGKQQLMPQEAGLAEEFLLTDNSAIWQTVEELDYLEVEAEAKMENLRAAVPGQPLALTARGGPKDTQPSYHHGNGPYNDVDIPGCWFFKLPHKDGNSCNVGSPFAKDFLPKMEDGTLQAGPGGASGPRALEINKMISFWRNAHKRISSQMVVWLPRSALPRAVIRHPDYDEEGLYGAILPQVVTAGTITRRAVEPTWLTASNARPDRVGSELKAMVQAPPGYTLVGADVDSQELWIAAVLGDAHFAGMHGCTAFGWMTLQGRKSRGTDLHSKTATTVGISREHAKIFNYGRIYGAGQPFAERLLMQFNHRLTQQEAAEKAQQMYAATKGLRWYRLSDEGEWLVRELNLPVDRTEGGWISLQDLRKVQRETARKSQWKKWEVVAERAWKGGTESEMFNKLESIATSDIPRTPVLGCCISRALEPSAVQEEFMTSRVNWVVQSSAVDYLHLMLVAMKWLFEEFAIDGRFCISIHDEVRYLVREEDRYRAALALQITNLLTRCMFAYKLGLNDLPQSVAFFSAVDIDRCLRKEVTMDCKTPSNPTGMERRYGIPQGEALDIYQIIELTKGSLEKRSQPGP

What is called EC50 is the concentration that produces a half-maximal response. What is called EC90 is the concentration at which the effect reaches the 90% level. As to `Nc1ccn(C[C@@H](CO)OCP(=O)(O)O)c(=O)n1` [CDV, Cidofovir, reference compound], the SI50 in data set [1] is listed as above 11; in data set [2] it was above 35. The compound also registered an SI90 in data set [1] above 3. Also, in the data set “in vitro [3]”, the CC50 at 7 d was 101 µM. Further, the EC50 in data set [4] amounted to 9.23 µM; in the data set with JC virus (JCV) [5], 5.66 µM; in [7], 4.62 µM; in data set [7] (168 h), 4.3 µM. Besides, the EC90 is 29.9 µM in data set [4], 107 µM in the data set with JC virus (JCV) [5], 106 µM in [7] and 24.1 µM in data set [7] (168 h). Moreover, the CC50 in the data set “in vitro [6]” is above 150 µM; in the data set on MOLT-3 cells (human, 7 d), 97 µM.

Regarding `CC(C)CC(NC(=O)OCc1ccccc1)C(=O)NC(CCC(=O)N(C)C)C(=O)CF` (stereo not drawn) [M128533, Z-Leu-Gln(NMe2)-FMK, reference compound] (Cbz-Leu-Glu(NMe2)-CH2F; configuration not given here), the CC50 with SARS-CoV-2 was above 100 µg/mL; in [9], above 100 µg/mL; with SARS-CoV (Vero 76 cells without virus, positive control) it was above 100 µg/mL. The EQ50 in the data set on SARS-CoV-2 came to 0.33 µg/mL; with SARS-CoV (SARS-CoV, Vero 76 cells, positive control) it was 0.075 µg/mL. The SI in the data set on SARS-CoV-2 (SARS-CoV-2, SI = CC50/EC50) is recorded as above 300; in the data set on SARS-CoV (SARS-CoV, SI = CC50/EC50), above 1300. The compound also came in with an SI50 in [8] above 260. Moreover, the “SI50 (SI)” value is recorded as above 1100 in data set [9] and above 13 in the data set with MERS-CoV (EMC).

As to `CC(C)(C)C(=O)SCCOP(=O)(OCCSC(=O)C(C)(C)C)OCC1=CC(O)C(n2ccc(=O)[nH]c2=O)O1` (stereo not drawn) [SATE-ddhU], the Activity result in data set [1] was “NA (key: NA (Not Active) SI50 = 0-3.9; MOD (Moderately Active) SI50 = 4-9.9; HI (Highly Active) SI50 = ≥10)”; in data set [2] it was “LO (key: NA (Not Active) SI50 = 0-3.9; LO (Slightly Active) SI50 = 4-9.9; MOD (Moderately Active) SI50 = 10-19.9; HI (Highly Active) SI50 = ≥20)”. For the same compound, the CC50 was 109 µM in data set [1]; 170 µM in data set [10]; above 100 µM in data set [12]; above 150 µM in data set [2]; 180 µM in [13]; 76 µM in [9]. The CC50 in data set [14] and in data set [15] was 560 µM each time. Also, the concentration for a half-maximal effect (EC50) is above 30 µM in [1] and 21.3 µM in data set [2]. For the same compound, the EC90 in data set [1] was above 30 µM; in data set [2] it was above 150 µM. The SI50 in data set [1] is listed as below 4; in data set [2], above 7; in [8], above 6.7. The SI90 was below 4 in data set [1] and 1 in data set [2]. Besides, the “SI50 (SI)” value came out at 0 in [10]; 0 in data set [11]; 0 in data set [12] (EV-68, SI = CC50/EC50); 0 in data set [13] (RSV, SI = CC50/EC50); 3.5 in data set [9]; 0 in [14] (Influenza(H1N1), SI = CC50/EC50). For the same compound, the “SI50 (SI)” value in data set [15] (Influenza B, SI = CC50/EC50) is reported as 0; with MERS-CoV (EMC), 0.

As usually defined, the IC50 is the point on the concentration scale where inhibition reaches its midpoint. `CCC(CC)COC(=O)[C@H](C)N[P@](=O)(OCC1=CC(O)C(n2ccc(=O)[nH]c2=O)O1)Oc1ccccc1` (stereo partly drawn) [AB23031]: the figures for the Activity entry (in data set [2]; in the data set on JC virus (JCV) [17]; in data set [18]) were “HI (key: NA (Not Active) SI50 = 0-3.9; LO (Slightly Active) SI50 = 4-9.9; MOD (Moderately Active) SI50 = 10-19.9; HI (Highly Active) SI50 = ≥20)”, “NA (NA (Not Active) SI50 = 0-3.9)” and “HI (key: NA (Not Active) SI50 = 0-3.9; LO (Slightly Active) SI50 = 4-9.9; MOD (Moderately Active) SI50 = 10-19.9; HI (Highly Active) SI50 = ≥20)”, respectively. For the same compound, the CC50 is above 150 µM in [2]; above 100 µM with JC virus (JCV) [16]; above 100 µM with MRC-5 cells; 55.4 µM with MOLT-3 cells; above 150 µM in data set [18]. Moreover, the EC50 is 5.12 µM in data set [2], 93.8 µM with JC virus (JCV) [17], above 100 µM in the data set on HCMV AD169 and 0.15 µM in [18]. Further, the EC90 was above 150 µM in data set [2], above 100 µM in the data set on JC virus (JCV) [17] and above 150 µM in data set [18]. Also, the “activity against BK virus (in words)” value in [2] is given as “highly active”. In the data set with HFF cells, this compound gave a half-maximal inhibitory concentration (IC50) above 100 µM. For the same compound, in data set [18], the “activity against hCMV (in words)” value is “highly active”.

On to `O=c1ccn(C2OC(COP(=O)(O)OP(=O)(O)OP(=O)(O)O)=CC2O)c(=O)[nH]1` (stereo not drawn) [ddhUTP, 3′-deoxy-3,4-didehydro-UTP], for which the “chain termination of RNA synthesis (in words)” value in data set [19] is recorded as “caused chain termination of RNA synthesis”. For the same compound, the “substrate for POLG1 (in words)” value in [20] is listed as “poor substrates”. Further, in data set [21], the “incorporation into RNA by SARS-Cov2 RdRp (in words)” value is on record as “incorporated onto RNA as UTP analog”.

In the case of `CCC(CC)COC(=O)[C@H](C)N[P@](=O)(OCC1=CC(O)C(n2cnc3c(=O)[nH]c(N)nc32)O1)Oc1ccccc1` (stereo partly drawn) [AB23032], the Activity result in [2] is on record as “NA (key: NA (Not Active) SI50 = 0-3.9; MOD (Moderately Active) SI50 = 4-9.9; HI (Highly Active) SI50 = ≥10)”; with JC virus (JCV) [17], “NA (NA (Not Active) SI50 = 0-3.9)”; in data set [18], “NA (key: NA (Not Active) SI50 = 0-3.9; MOD (Moderately Active) SI50 = 4-9.9; HI (Highly Active) SI50 = ≥10)”. Also, the CC50 in [2] is above 150 µM; in the data set with JC virus (JCV) [16], above 100 µM; in the data set on MRC-5 cells it was above 100 µM; in data set [18], above 150 µM. In addition, the EC50 is 77.2 µM in data set [2], above 100 µM in the data set with JC virus (JCV) [17], above 100 µM in the data set with HCMV AD169 and above 150 µM in data set [18]. In addition, the EC90 in [2] was 149 µM; with JC virus (JCV) [17] it was above 100 µM; in data set [18], above 150 µM.

Compound `NC(=O)c1ncn([C@@H]2O[C@H](COP(=O)(O)O)[C@@H](O)[C@H]2O)n1` [RMP, Ribavirin 5′-monophosphate] gave an IC50 in data set [22] of 2.6 ± 1.8 µM.
